Entries after “also recorded” stand apart in the source; their conditions may differ. Counter-ions that a name gives are not always drawn.
Experiments:
Assay type in all cases: in vivo, mouse
[1] = system: chorda tympani (CT) nerve of T1R3 knock-out and B6 wild-type mice; experiment: Whole-nerve recording from the chorda tympani (CT) nerve on lingual application of tastants; conditions: integrated response normalized to 100 mM NH4Cl
Experimental: (§1) The general linear model for repeated measurements analysis was used to compare the responses of T1R3 knock-out, B6 wild-type and 129 wild-type mice, with tastant concentration as dependant variables and genotype as fixed factor. For each compound, the responses from all concentrations were analyzed together, the response from each concentration being treated as a single value for the multiple measurement analysis. For behavioral tests, the F value is given for comparison of all genotypes. When a significant difference was found, the Tukey's test was used to determine which means differed. P values from the Tukey's test are given for T1R3 knock-out vs. B6 and for T1R3 knock-out vs. 129. When this analysis gave a borderline p value (0.05<p<0.06) each concentration was analyzed individually using the general linear model univariate analysis. For CT and GL nerve responses to glucose, maltose and sucralose the general linear model univariate analysis was used because only one concentration was tested for each of these tastants.
(§2) To examine the contributions of the gustatory nerves to the behavioral responses, we recorded from the chorda tympani (CT) branch of the facial nerve and the glossopharyngeal (GL) nerve of T1R3 knock-out and B6 wild-type mice. Recordings of electrical impulses from the chorda tympani (CT) and the glossopharyngeal (GL) nerves were performed according to known methods (Kawai, K. et al., Proc. Nat'l. Acad. Sci. USA, 97: 11044 (2000)). Male and female mice were used. Tastants were applied at a regular flow rate to the tongue for 30 seconds (CT) or 60 seconds (GL). Tastant concentrations are listed below:
(§3) At 5, 10, 15, 20 and 25 seconds (for the CT) and 5, 10, 20, 30 and 40 seconds (for the GL) after stimulus onset the integrated response magnitudes to each stimulus were measured in the chart records as magnitudes of pen deflection (mm) from baseline (before stimulation) and averaged. These averages were normalized to the response to NH4Cl and analyzed with the General Linear Model Multiple Measures of SPSS with tastant concentrations provided to subjects as “variables” and genotype differences between subjects as “factor”. The single concentrations (see FIG. 14) used for the sugars, sorbitol and saccharin were chosen to be in the midrange of CT responses of C57BL6 mice based on previous studies (Ninomiya, Y. and Imoto, T., Am J. Physiol., 268: R1019 (1995); Ninomiya, Y. et al., Am J. Physiol., 269: R930 (1995); Inoue, M. et al., Chem. Senses, 26: 915 (2001)).

[2] = system: T1R3 knock-out, B6 wild-type and 129 wild-type mice; experiment: 48-hour two-bottle preference test (tastant versus water); conditions: for Behavioral (preference) response of T1R3 knock-out mice compared with B6 wild-type mice: 48 h two-bottle test, concentrations eliciting preference in B6 wild-type; for Response of T1R3 knock-out mice compared with 129 mice: two-bottle preference; for Preference responses compared among B6, 129 and T1R3 knock-out mice: B6 (taster), 129 (nontaster), T1R3 knock-out (null)
Experimental: Behavioral tests were conducted to examine the responses of T1R3 knock-out mice to tastants representing five taste qualities (sweet, bitter, salty, sour and umami). Mice of both sexes aged between 2 and 12 months were used. Age- and gender-matched mice were used in the three genotype groups, and littermates were used in the knock-out and B6 wild-type control groups. The two-bottle preference test consisted of giving the mice two bottles, one containing deionized water and the other a tastant solution, for 48 hours. The bottle positions were swapped after 24 hours to eliminate position effects. The ratio of tastant to total liquid consumed was measured and compared between groups using known methods (see, e.g., Wong, G. T. et al., Nature, 381: 796 (1996).
The tastants were presented at two-fold or three-fold ascending concentrations. The mice were allowed a 7-day recovery period with deionized water between tastants. The order of tastants for Group 1 was sucrose, quinine, SC45647, MSG, acesulfame K, sucralose and glucose. The order of tastants for Group 2 was NaCl, HCl and maltose. All tastants were of the highest purity available. MSG solutions also contained 10 micromolar amiloride to block the salty taste of the Na+. Tastant concentrations are listed below in order of presentation:
as §1

[3] = system: glossopharyngeal (GL) nerve of T1R3 knock-out and B6 wild-type mice; experiment: Whole-nerve recording from the glossopharyngeal (GL) nerve on lingual application of tastants; conditions: for GL responses of T1R3 knock-out mice compared with B6 wild-type mice: integrated response normalized to 100 mM NH4Cl
Experimental: as §1, §2, §3

SMILES | CT responses of T1R3 knock-out mice compared with B6 wild-type mice [1] | Behavioral (preference) response of T1R3 knock-out mice compared with B6 wild-type mice [2] | GL responses of T1R3 knock-out mice compared with B6 wild-type mice [3] | other results
OC[C@@H](O)[C@@H](O)[C@H](O)[C@@H](O)CO [sorbitol] | diminished; also recorded: moderately or markedly diminished | – | – | –
N[C@@H](CCC(=O)O)C(=O)[O-].[Na+] [MSG, monosodium glutamate] | slightly diminished; also recorded: diminished only at the highest concentration tested | moderately diminished | no differences | Behavioral (preference) response of T1R3 knock-out mice compared with B6 wild-type mice ([2]; listed as monosodium glutamate (MSG)): reduced response; Preference of T1R3 knock-out mice compared with B6 wild-type mice ([2]; concentrations between 30 and 300 mM): reduced, but not abolished
Cl [HCl] | – | – | unchanged | –
[Cl-].[Na+] [NaCl] | – | – | unchanged | –
C=C[C@H]1CN2CC[C@H]1C[C@H]2[C@H](O)c1ccnc2ccc(OC)cc12.C=C[C@H]1CN2CC[C@H]1C[C@H]2[C@H](O)c1ccnc2ccc(OC)cc12.O=S(=O)(O)O [Quinine, quinine sulfate] | – | – | unchanged | –
N[C@H](Cc1c[nH]c2ccccc12)C(=O)O [D-tryptophan] | nearly abolished; also recorded: near-zero | – | – | –
OC[C@H]1O[C@H](O[C@H]2[C@H](O)[C@@H](O)C(O)O[C@@H]2CO)[C@H](O)[C@@H](O)[C@@H]1O (mixture of isomers) [Maltose, maltose] | significant differences; also recorded: diminished; also recorded: moderately or markedly diminished | no difference | – | Response of T1R3 knock-out mice compared with 129 mice [2]: did not differ
O=C(CO)[C@@H](O)[C@H](O)[C@H](O)CO [fructose] | diminished; also recorded: moderately or markedly diminished | – | – | –
CC1=CC(=O)[N-]S(=O)(=O)O1.[K+] [AceK, acesulfame K] | markedly diminished; also recorded: near-zero | indifference | Significant differences; also recorded: reduced | Preference responses compared among B6, 129 and T1R3 knock-out mice [2]: strongest in B6 mice, weakest in T1R3 knock-out mice, and intermediate in 129 mice; GL nerve responses of B6 wild-type mice compared with their CT responses [3]: lower at concentrations below 100 mM, but higher at 300 mM; Concentration at which the reduced GL response of T1R3 knock-out mice was evident ([3]; T1R3 knock-out vs B6 wild-type): 30 to 300 mM
C[C@H](NC(=NCC(=O)O)Nc1ccc(C#N)cc1)c1ccccc1 [SC45647] | markedly diminished; also recorded: near-zero | indifference | Significant differences; also recorded: reduced | Preference responses compared among B6, 129 and T1R3 knock-out mice [2]: strongest in B6 mice, weakest in T1R3 knock-out mice, and intermediate in 129 mice; GL nerve responses of B6 wild-type mice compared with their CT responses [3]: much lower
O=C[C@H](O)[C@@H](O)[C@H](O)[C@H](O)CO [Glucose, glucose] | not significantly diminished | reduced response; also recorded: slightly reduced | – | Response of T1R3 knock-out mice compared with 129 mice [2]: did not differ
OC[C@H]1O[C@H](O[C@]2(CCl)O[C@H](CCl)[C@@H](O)[C@@H]2O)[C@H](O)[C@@H](O)[C@H]1Cl [Sucralose, sucralose] | near-zero | indifference | – | Preference responses compared among B6, 129 and T1R3 knock-out mice [2]: strongest in B6 mice, weakest in T1R3 knock-out mice, and intermediate in 129 mice
OC[C@H]1O[C@@](CO)(O[C@H]2O[C@H](CO)[C@@H](O)[C@H](O)[C@H]2O)[C@@H](O)[C@@H]1O [Sucrose, sucrose] | markedly diminished; also recorded: moderately or markedly diminished | markedly diminished; also recorded: indifference | Significant differences; also recorded: reduced | Behavior of T1R3 knock-out mice at high tastant concentration ([2]; concentrations 5- to 10-fold those needed to elicit a strong preference in B6 wild-type mice): preferred; Response of T1R3 knock-out mice compared with 129 mice [2]: weaker; GL nerve responses of B6 wild-type mice compared with their CT responses [3]: much lower
O=C1NS(=O)(=O)c2ccccc21 [saccharin] | near-zero | – | – | –
